# Data published in US10238642B2, “Methods for treating neurogenic orthostatic hypotension” (Theravance Biopharma R&D IP, LLC, priority 2016, dated 2019).
# Where “and” joins values, the source holds several entries; their conditions need not be identical. Equal values may be shown once.
# Tests used:
# [1] = system: subjects with nOH; experiment: Phase 2 clinical study in subjects with nOH, Part A (dose escalation); type: in vivo, human; design: key to Improvement in Seated SBP / Improvement in Time Standing / Improvement in Dizziness or Lightheadedness: ✓: Dose-related improvement observed relative to placebo
# Text: A Phase 2 clinical trial study is being conducted with 4-[2-(2,4,6-trifluorophenoxymethyl)phenyl]piperidine hydrochloride (“Study Compound”). The study is a multicenter, randomized, two-part, single-(Part A) and double-blind (Part B) study of the Study Compound versus placebo in subjects with nOH. An open-label, extension study to evaluate efficacy, safety and tolerability of the Study Compound will also be conducted (Part C). Part A follows a daily, single, escalating dose design starting with placebo on Day 1, followed by a dose of 1 mg of Study Compound on Day 2, and proceeding to escalating higher doses of Study Compound on a daily basis up to a maximum dose of 10 mg based on safety, tolerability, and determination of a pressor effect.
# Subjects included in the study are male or female between the age of 40 and 80 years (inclusive) that have been diagnosed with symptomatic orthostatic hypotension due to pure autonomic failure, multiple system atrophy or Parkinson's disease (i.e., PD plus symptoms). At screening, autonomic function testing is conducted to confirm the diagnosis of autonomic dysfunction including sinus arrhythmia and the Valsalva maneuver.
# In Part A, all doses (Study Compound and placebo) are administered in a single-blind manner (i.e., subject remains blinded) using an oral dosing solution. Up to 30 subjects are enrolled in Part A. Two days before the start of Part A, subjects are admitted to the clinical research center (CRC) where they remain during the entire dose escalation period. On Day 1, subjects receive a single dose of placebo. On Day 2, subjects receive a single 1 mg dose of Study Compound. On each subsequent day, subjects receive a single escalating dose of Study Compound as follows: 2.5 mg on Day 3; 5 mg on Day 4; 10 mg on Day 5 unless the following preset stopping criteria occur: • (a) a determination from the Investigator (in collaboration with the Sponsor) that administration of the subsequent next dose may pose a safety concern; • (b) SBP ≥180 mm or DBP ≥110 mm in the sitting position replicated 2 more times over an hour; • (c) intolerable side effects as determined by the Investigator; or • (d) subject receives maximum dose of study medication specified by the protocol.
# Once the subject meets any of the above criteria, no further dose escalation is performed. Following a post-dosing observation day in the clinic, the subject is released from the CRC.
# Seated and standing systolic blood pressure and completion of an Orthostatic Hypotension Symptom Assessment (OHSA) questionnaire are used to assess efficacy. For Part C, ambulatory blood pressure monitoring is used if available to measure blood pressure every 2 hours for 24-hour period before dosing on Day 1; and 72 to 48 hours before Day 15, Day 29, Day 85 and Day 169 clinic visits. Additionally, blood pressure is taken 20-30 mins before eating each morning about being supine (30 degree elevation) for at least 10 mins.
# For both Parts A and B, the primary study endpoint is the difference from placebo of seated systolic blood pressure at 6 to 8 hours after drug administration. For Part A, placebo refers to the Day 1 visit, and the difference from placebo refers to the time-matched difference from each Study Compound dosing day (Days 2 through 5) relative to placebo dosing (Day 1). For Part C, primary study endpoint is improvement in the Likert scale for “dizziness, lightheadedness, feeling faint, or feeling like you might black out” (OHSA question 1) at week 4. […]
# [2] = Differential scanning calorimetry; type: physicochemical; conditions: heated 10° C./min from 22° C. to 250° C.
# Method: Differential scanning calorimetry (DSC) was performed using a TA Instruments Model Q-100 module with a Thermal Analyst controller. Data were collected and analyzed using TA Instruments Thermal Solutions software. A 2.8 mg sample of the crystalline hydrochloride salt of Example 8 was accurately weighed into a covered aluminum pan. After a 5 minute isothermal equilibration period at 22° C., the sample was heated using a linear heating ramp of 10° C./min from 22° C. to 250° C. A representative DSC thermograph is shown in FIG. 2 of U.S. Pat. No. 8,304,433 B2.
# [3] = system: other CYP450 enzymes; conditions: cited from earlier work
# [4] = individual patient, Part A, oral solution up to 10 mg/day, vs placebo, preliminary
SMILES,"MSA patients showing improvement relative to placebo in at least one category ([1]; MSA patients completing Part A, 6 of 6) [%]","Improvement in Dizziness or Lightheadedness [1, 4]","Improvement in Time Standing [1, 4]","Improvement in Seated SBP ([1]; individual patient, Part A, oral solution up to 10 mg/day, vs placebo, preliminary, Hydrochloride)","patients showing an improvement relative to placebo in at least one of seated SBP, standing time, dizziness or lightheadedness ([1]; patients completing Part A, 10 of 12) [%]",thermal stability by DSC [2],impact of inhibition of other CYP450 enzymes on metabolism [3]
"Cl.Fc1cc(F)c(OCc2ccccc2C2CCNCC2)c(F)c1 [4-[2-(2,4,6-Trifluorophenoxymethyl)phenyl]piperidine Hydrochloride]",100,✓,✓,✓ (6×) and ✓^2,83,excellent thermal stability,
CNCC[C@@H](Oc1ccccc1C)c1ccccc1 [atomoxetine],,,,,,,not significantly impacted
